Measurements: patent US6632447B1, “Method for chemoprevention of prostate cancer” (The University of Tennessee Research Corporation, priority 1998, dated 2003)

Columns and labels:
[1] = system: prostate intraepithelial neoplasia (PIN); experiment: Phase IIa prostate cancer chemoprevention human clinical trial (PIN regression); assay type: in vivo; settings: 60 mg daily for 4 months
Experimental: A Phase IIa, open labeled non randomized single center study with 21 human subjects was conducted. […] After 4 months, patients are rebiopsied (8 biopsies) and PIN status is reassessed. Twenty-one patients entered the study and sixteen patients have completed the study.

[2] = system: prostate tumor in TRAMP mice; experiment: Prostatic wholemount, histology and large T antigen immunohistochemistry in TRAMP mice; assay type: in vivo, mouse; settings: vs placebo at 15 weeks
Experimental: This present study focuses on the histological and molecular changes associated with development of prostate tumor in control animals and the mechanism of toremifene chemopreventive action with TRAMP animals which are bred, screened and treated with sustained-release drug pellets. At predetermined times, groups of 5 animals were sacrificed and their prostates were removed for analysis. The prostate glands were evaluated for the presence of tumor by histology, wholemount dissections, and large T antigen immunohistochemistry. To date, the Placebo and the Toremifene treatments have been completed for the 7, 10, 15 and 20 week time-points and the results are described below.
Prostatic wholemounts for 7, 10, 15, and 20 weeks for the various groups have been completed. […] By 20 weeks, there is a striking delay in tumor occurrence in the Toremifene treated group up to 35 weeks FIG. 4). […] For histological evaluation, tissue samples were fixed, processed and paraffin embedded. Sections ([…]) were cut and stained by routine H&E method.

[3] = system: human stromal fibroblast cells; experiment: TGF synthesis in human stromal fibroblast cells; assay type: cell-based
[4] = system: TRAMP mouse ventral prostate; experiment: Histological examination (H&E) of ventral prostate tissue of TRAMP mice; assay type: in vivo; settings: toremifene-treated 30-week-old TRAMP mouse vs placebo-treated 16-week-old
Experimental: 1) Prostate wholemount analysis is serially performed to detect changes in prostate ductal morphology over time with and without treatment; examples are shown in FIG. 2. Tissue sections are evaluated histologically by H&E and Masson-trichome standard staining. The emergence of PIN is assessed and graded (I-mild to III-severe).
Tumors from the placebo and high toremifene-treated groups taken at the time of palpation were evaluated histologically. FIG. 2A is an H&E section of the ventral prostate of a 17-week-old normal adult mouse.

[5] = system: prostate cancer in the ventral prostate of TRAMP mice; experiment: Chemopreventive activity of toremifene pellets in TRAMP transgenic mice (palpable tumor formation); assay type: in vivo, mouse
Source text: The study of prostate cancer chemoprevention has been hindered by the lack of appropriate animal models. The recent development of the transgenic adenocarcinoma mouse prostate (TRAMP) model enables the study of chemoprevention. In the TRAMP model, which is described in Greenberg et al., AProstate cancer in a transgenic mouse, Proc. Natl Acad. Sci. USA, 1995, Vol. 92, pages 3439-3443, the PB-SV40 large T antigen (PB-Tag) transgene is expressed specifically in the epithelial cells of the murine prostate. […]
A study was undertaken to test the efficacy of chemopreventive agents in TRAMP transgenic animals (PBTag X FVBwt) (provided by Dr. Norman Greenberg, Baylor College of Medicine, TX). […] The efficacy of the treatment was measured by the absence of palpable tumor formation. The murine prostate tumors were harvested and evaluated by molecular and histological techniques.

CN(C)CCOc1ccc(/C(=C(/CCCl)c2ccccc2)c2ccccc2)cc1 [Toremifene, toremifene]
serum PSA, serum free testosterone, serum total testosterone and serum estradiol [1]: remained in the normal ranges | patients with regression of PIN to benign or atrophic prostate tissue (complete response) ([1]; 16 patients completed): 12 out of 16 | ductal development and tissue differentiation (H&E histology) [2]: inhibited the ductal development and tissue differentiation | TGF? synthesis [3]: significantly induce TGF? synthesis | glandular architecture of the prostate (H&E) [4]: retains much of the normal glandular architecture | mitotic index [4]: much lower than that for the placebo-treated animal | delay of time to tumors in 25% of the animals ([5]; high and low toremifene groups versus placebo): 7-8 weeks | week by which tumors were palpable in 25% of the animals ([5]; high and low toremifene groups, placebo week 23): 30-31 weeks
